Measured values published in patent publication US20220218647A1, “DIETARY BUTYRATE” (SOCIETE DES PRODUITS NESTLE S.A., priority 2019, published 2022).

Legend:
[1] = molecular target: T1, porcine pancreatic lipase (PPL) (Sus scrofa, UniProt P00591); experiment: In vitro lipid digestion in simulated intestinal fluid (SIF), pH-stat; assay type: in vitro ADME; parameters: by porcine pancreatic lipase (from pancreatin); from tissue; host or cells: pancreatin (pig pancreas extract); settings: SIF alone; emulsion containing 200 mg fat, pH 6.8, 37° C.
T1 sequence (P00591 1-450): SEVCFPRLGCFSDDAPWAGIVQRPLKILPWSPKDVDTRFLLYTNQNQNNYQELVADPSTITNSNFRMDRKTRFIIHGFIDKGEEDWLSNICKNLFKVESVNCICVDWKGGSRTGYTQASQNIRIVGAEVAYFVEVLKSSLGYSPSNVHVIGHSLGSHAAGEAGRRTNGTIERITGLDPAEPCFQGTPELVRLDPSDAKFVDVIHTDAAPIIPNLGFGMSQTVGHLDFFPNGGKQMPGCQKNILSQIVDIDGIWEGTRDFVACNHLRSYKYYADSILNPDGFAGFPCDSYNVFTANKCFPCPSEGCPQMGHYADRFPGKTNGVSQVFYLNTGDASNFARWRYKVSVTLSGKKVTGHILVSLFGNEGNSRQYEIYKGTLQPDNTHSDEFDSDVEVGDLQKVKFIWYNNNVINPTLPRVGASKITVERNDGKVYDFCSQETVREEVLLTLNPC
T1 sequence (P02703 23-112 partner): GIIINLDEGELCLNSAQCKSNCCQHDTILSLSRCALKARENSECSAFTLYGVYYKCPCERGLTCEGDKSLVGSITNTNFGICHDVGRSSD
Excerpt: (§1) An emulsion was then created using an ultrasonic probe homogeniser.

[2] = molecular target: T1, porcine pancreatic lipase (PPL); settings: pig, 3 h, pH 11.5
Excerpt: Because many fatty acids are only partially ionised at pH 6.8, direct titration gives only partial picture of the extent of lipid digestion, instead back titration to pH 11.5 or GC-FAME analysis is required to estimate the full extent of digestion.

[3] = tested on: rabbit gastric lipase (RGL) followed by porcine pancreatic lipase (PPL); experiment: Sequential in vitro digestion in simulated gastric fluid (SGF) followed by SIF, pH-stat; assay type: in vitro ADME
Excerpt: as §1

initial rate of lipolysis [1]: 223 ± 59 µmol/min
extent of digestion [2]: 101.5±0.9%
initial lipolysis rate in SIF compartment ([3]; SGF-SIF sequential digestion, 200 mg fat): 44.1 ± 8.8 µmol/min
hydrolysis in the stomach ([3]; gastric compartment of the model): extensive hydrolysis
lipolysis by gastric lipase ([3]; indicated by decreased total fatty acid release during SIF lipolysis after pre-exposure to RGL in SGF): ~60%
SMILES: CCCC(=O)OCC(COC(=O)CCC)OC(=O)CCC [tributyrin]
